Experimental data reported in article PMC6332220, “Synthesis, Characterization and Biological Evaluation of Some Quinoxaline Derivatives: A Promising and Potent New Class of Antitumor and Antimicrobial Agents” (Molecules, 2015).
≈ marks a conversion by molar mass, not a printed value.

Legend:
Bacillus subtilis [1] = assay: Disk diffusion, Bacillus subtilis; type: cell-based; conditions: Gram positive, 8.0 mm disks, 10 μL
Protocol: (§1) The disk diffusion method was used for determination of the antimicrobial activity using ampicillin, gentamicin and amphotericin B as reference drugs. The results were recorded for each compounds as the average diameter as inhibition zones (IZ) of bacterial or fungal growth around the discs in mm as shown in Table 2.
(§2) Antimicrobial activities were carried out against highly pathogenic strains; three strains of Gram positive bacteria (Bacillus subtilis, Staphylococcus aureus and Streptococcus faecalis), four strains of Gram negative bacteria (Escherichia coli, Neisseria gonorrhoeae, Pseudomonas aeruginosa and Salmonella typhimurium) and three fungi strains (Aspergillus flavus, Aspergillus fumigatus and Candida albicans) isolated from primary agar plates. Antimicrobial activity of the tested samples was determined using a modified Kriby-Bauer disk diffusion method. Briefly, 100 µL of the test bacteria/fungi were grown in 10 mL of fresh media until they reached a count approximately 10^8 cells/mL for bacteria or 10^5 cells/mL for fungi. 100 µL of microbial suspension was spread onto agar plates corresponding to the broth in which they were maintained. The inoculated plates of bacterial strains were incubated at 35–37 °C for 24–48 h, while the inoculated plates of fungal strains such as A. flavus and A. fumigatus were incubated at 25 °C for 48 h and yeast as C. albicans was incubated at 30 °C for 24–48 h.
(§3) The agar disk diffusion (qualitative) method was used in this investigation for determination of the preliminary antibacterial and antifungal activities. The agar used was Mueller-Hinton agar plates that are rigorously tested for composition and pH. Further the depth of the agar in the plate is a factor to be considered in the disk diffusion method.
(§4) Reference drugs: ampicillin was used as a standard antibacterial drug for Gram positive bacteria, gentamicin as a standard antibacterial drug for Gram negative bacteria and amphotericin B as antifungal standard drug.
(§5) Bacterial and fungal strains were spread onto the surface of the agar plates using sterile cotton swabs. For evaluation of antibacterial activities, blank paper disks (Schleicher & Schuell, Alicante, Spain) with a diameter of 8.0 mm were saturated with 10 μL of tested concentration of the stock solutions. Disks were dried and then placed onto inoculated agar plates. The plates of bacterial strains were reincubated at 35–37 °C for 24–48 h, while the plates of fungal strains such as A. flavus and A. fumigatus were reincubated at 25 °C for 48 h and yeast as C. albicans was reincubated at 30 °C for 24–48 h as mentioned above. […] For an accurate analysis, tests were run in triplicate for each strain to avoid any error as described in Table 2.

Aspergillus flavus = assay: Disk diffusion, Aspergillus flavus; type: cell-based; conditions: Fungi, 8.0 mm disks, 10 μL
Protocol: as §1, §2, §3, §4, §5
(§6) Disk diffusion method for filamentous fungi testing by using approved standard method (M02-A11) developed by the CLSI for evaluating the susceptibilities of filamentous fungi to antifungal agents. Disk diffusion method for yeasts developed by using approved standard method (M44-A2) by the CLSI [44]. Agar-based methods such as disk diffusion can be good alternatives because they are simpler and faster than broth-based methods.

Salmonella typhimurium [2] = assay: Disk diffusion, Salmonella typhimurium; type: cell-based; conditions: Gram negative, 8.0 mm disks, 10 μL
Protocol: as §1, §2, §3, §4, §5

Staphylococcus aureus [3] = assay: Disk diffusion, Staphylococcus aureus; type: cell-based; conditions: Gram positive, 8.0 mm disks, 10 μL
Protocol: as §1, §2, §3, §4, §5

[4] = tested on: WI 38 (normal fibroblast cells); assay: In vitro cytotoxicity, SRB cell growth assay, normal cells WI 38; type: cell-based, human; conditions: 48 h exposure, non-cytotoxic = IC50 >100 μg/mL
Protocol: (§7) The in vitro cytotoxic activity of the newly synthesized compounds against human breast cell line (MCF7), non-small cell lung cancer NCIH460, CNS cancer SF-268 and WI 38 (normal fibroblast cells) were evaluated using doxorubicin as the reference drug according to the method reported by Skehan et al..
(§8) The newly synthesized compounds were evaluated in vitro against three human cancer cell lines; which are MCF-7 (breast adenocarcinoma), NCI-H460 (non-small cell lung cancer) and SF-268 (CNS cancer), and WI 38 (normal fibroblast cells) were used in this study. MCF-7 was obtained from the European Collection of Cell Cultures (ECACC, Salisbury, UK) but NCI-H460, SF-268 and WI 38 were kindly provided by the National Cancer Institute (NCI, Cairo, Egypt). They grow as monolayer and routinely maintained RPMI-1640 medium supplemented with 5% heat inactivated fetal bovine serum (FBS), 2 mM glutamine and antibiotics (penicillin 100 U/mL, streptomycin 100 µg/mL), at 37 °C in a humidified atmosphere containing 5% CO2. Exponentially growing cells were obtained by plating 1.5 × 10^5 cells/mL for MCF-7 and SF-268, and 0.75 × 10^4 cells/mL for NCI-H460 followed by 24 h of incubation. The effect of the vehicle solvent (DMSO) on the growth of these cell lines was evaluated in all experiments by exposing untreated control cells to the maximum concentration (0.5%) of DMSO used in each assay.
(§9) The effect of compounds on the in vitro growth of human tumor cell lines were evaluated according to the procedure adopted by the National Cancer Institute ([…]) in the “In vitro Anticancer Drug Discovery Screen” that uses the protein-binding dye sulforhodamine B (SRB) to assess cell growth. In the assay protocol, all cells were incubated at 37 °C under humidified atmosphere containing 5% CO2. Briefly, exponentially cells growing in 96-well plates were then exposed for 48 h to five serial concentrations of each compound, starting from a maximum concentration of 150 μg/mL. Following this exposure period adherent cells were fixed, washed and stained. The bound stain was solubilized and the absorbance was measured at 492 nm in a plate reader (Bio-Tek Instruments Inc., Power wave XS, Winston, NC, USA). For each test compound and cell line, a dose response curve was obtained and the inhibitory concentration of 50% (IC50), corresponding to the concentration of the compounds that inhibited 50% of the net cell growth was calculated as described elsewhere. Doxorubicin was used as a positive control and tested in the same manner.

Streptococcus faecalis [5] = assay: Disk diffusion, Streptococcus faecalis; type: cell-based; conditions: Gram positive, 8.0 mm disks, 10 μL
Protocol: as §1, §2, §3, §4, §5

Aspergillus fumigatus = assay: Disk diffusion, Aspergillus fumigatus; type: cell-based; conditions: Fungi, 8.0 mm disks, 10 μL
Protocol: as §1, §2, §3, §4, §5, §6

Candida albicans = assay: Disk diffusion, Candida albicans; type: cell-based; conditions: Fungi, 8.0 mm disks, 10 μL
Protocol: as §1, §2, §3, §4, §5, §6

Streptococcus faecalis [6] = assay: MIC by broth dilution, Streptococcus faecalis; type: cell-based; conditions: Gram positive, 0.98-125 µg/mL
Protocol: (§10) In this study, MIC (quantitative method) was used for evaluation of the antimicrobial activity of tested compounds. Screening was evaluated in vitro using the Broth dilution method according to CLSI [45]. All the bacteria were incubated and activated at 30 °C for 24 h inoculation into nutrient broth and the fungi were incubated in malt extract broth for 48 h. The compounds were dissolved in DMSO and then diluted using […] Mueller-Hinton broth. […] In each case triplicate tests were performed and the average was taken as the final reading. The tubes were then inoculated with the test organisms, grown in their suitable broth at 37 °C for 24 h for tested microorganisms (1 × 10^8 CFU/mL for bacteria and 1 × 10^6 CFU/mL of fungi), each 5 mL received 0.1 mL of the above inoculum and incubated at 37 °C for 24 h.

SF-268 (CNS cancer) = assay: In vitro cytotoxicity, SRB cell growth assay, SF-268
Protocol: as §7, §8, §9

Pseudomonas aeruginosa [7] = assay: Disk diffusion, Pseudomonas aeruginosa; type: cell-based; conditions: Gram negative, 8.0 mm disks, 10 μL
Protocol: as §1, §2, §3, §4, §5

[8] = tested on: MCF-7 (breast adenocarcinoma); assay: In vitro cytotoxicity, SRB cell growth assay, MCF-7
Protocol: as §7, §8, §9

Neisseria gonorrhoeae = assay: Disk diffusion, Neisseria gonorrhoeae; type: cell-based; conditions: Gram negative, 8.0 mm disks, 10 μL
Protocol: as §1, §2, §3, §4, §5

Pseudomonas aeruginosa [9] = assay: MIC by broth dilution, Pseudomonas aeruginosa; type: cell-based; conditions: Gram negative, 0.98-125 µg/mL
Protocol: as §10

[10] = tested on: NCI-H460 (non-small cell lung cancer); assay: In vitro cytotoxicity, SRB cell growth assay, NCI-H460
Protocol: as §7, §8, §9

Bacillus subtilis [11] = assay: MIC by broth dilution, Bacillus subtilis; type: cell-based; conditions: Gram positive, 0.98-125 µg/mL
Protocol: as §10

Escherichia coli [12] = assay: Disk diffusion, Escherichia coli; type: cell-based; conditions: Gram negative, 8.0 mm disks, 10 μL
Protocol: as §1, §2, §3, §4, §5

Escherichia coli [13] = assay: MIC by broth dilution, Escherichia coli; type: cell-based; conditions: Gram negative, 0.98-125 µg/mL
Protocol: as §10

Staphylococcus aureus [14] = assay: MIC by broth dilution, Staphylococcus aureus; type: cell-based; conditions: Gram positive, 0.98-125 µg/mL
Protocol: as §10

Salmonella typhimurium [15] = assay: MIC by broth dilution, Salmonella typhimurium; type: cell-based; conditions: Gram negative, 0.98-125 µg/mL
Protocol: as §10

## 9-Bromo-di-1,2,4-triazolo[1,5-a:5′,1′-c]quinoxaline [Compound 13]
Bacillus subtilis [1]
  Inhibition Zone Diameter (IZ) (mm) Bacillus subtilis: 17 mm
Aspergillus flavus
  Inhibition Zone Diameter (IZ) (mm) Aspergillus flavus: R (R (IZ = 0 mm))
Salmonella typhimurium [2]
  Inhibition Zone Diameter (IZ) (mm) Salmonella typhimurium: 17 mm
Staphylococcus aureus [3]
  Inhibition Zone Diameter (IZ) (mm) Staphylococcus aureus: 16 mm
[4]
  IC50 (μg/mL) WI 38: 18.62 ± 1.21 µg/mL
Streptococcus faecalis [5]
  Inhibition Zone Diameter (IZ) (mm) Streptococcus faecalis: 20 mm
Aspergillus fumigatus
  Inhibition Zone Diameter (IZ) (mm) Aspergillus fumigatus: R (R (IZ = 0 mm))
Candida albicans
  Inhibition Zone Diameter (IZ) (mm) Candida albicans: R (R (IZ = 0 mm))
Streptococcus faecalis [6]
  Minimum Inhibitory Concentration (MIC) (µg/mL) Streptococcus faecalis: 62.5 µg/mL
SF-268 (CNS cancer); SF-268, SRB, 48 h exposure
  IC50 (μg/mL) SF-268: 29.35 ± 7.01 µg/mL
Pseudomonas aeruginosa [7]
  Inhibition Zone Diameter (IZ) (mm) Pseudomonas aeruginosa: 19 mm
[8]; MCF-7, SRB, 48 h exposure
  IC50 (μg/mL) MCF-7: 37.64 ± 6.72 µg/mL
Neisseria gonorrhoeae
  Inhibition Zone Diameter (IZ) (mm) Neisseria gonorrhoeae: R (R (IZ = 0 mm))
Pseudomonas aeruginosa [9]
  Minimum Inhibitory Concentration (MIC) (µg/mL) Pseudomonas aeruginosa: 125 µg/mL
[10]; NCI-H460, SRB, 48 h exposure
  IC50 (μg/mL) NCI-H460: 36.05 ± 5.23 µg/mL
Bacillus subtilis [11]
  Minimum Inhibitory Concentration (MIC) (µg/mL) Bacillus subtilis: 1.95 µg/mL
Escherichia coli [12]
  Inhibition Zone Diameter (IZ) (mm) Escherichia coli: 17 mm
Escherichia coli [13]
  Minimum Inhibitory Concentration (MIC) (µg/mL) Escherichia coli: 7.81 µg/mL
Staphylococcus aureus [14]
  Minimum Inhibitory Concentration (MIC) (µg/mL) Staphylococcus aureus: 7.81 µg/mL
Salmonella typhimurium [15]
  Minimum Inhibitory Concentration (MIC) (µg/mL) Salmonella typhimurium: 3.9 µg/mL

## NNc1nc2ccc(Br)cc2n2nnnc12 [Compound 10]
Streptococcus faecalis [6]; Enterococcus faecalis, 24 h, read-out: Minimum Inhibitory Concentration (MIC) (µg/mL) Streptococcus faecalis
  MIC: 0.98 µg/mL (≈ 3.5 µM)
Pseudomonas aeruginosa [9]; Pseudomonas aeruginosa, 24 h, read-out: Minimum Inhibitory Concentration (MIC) (µg/mL) Pseudomonas aeruginosa
  MIC: 125 µg/mL (≈ 446 µM)
Bacillus subtilis [11]; Bacillus subtilis, 24 h, read-out: Minimum Inhibitory Concentration (MIC) (µg/mL) Bacillus subtilis
  MIC: 0.98 µg/mL (≈ 3.5 µM)
Escherichia coli [13]; Escherichia coli, 24 h, read-out: Minimum Inhibitory Concentration (MIC) (µg/mL) Escherichia coli
  MIC: 3.9 µg/mL (≈ 13.9 µM)
Staphylococcus aureus [14]; Staphylococcus aureus, 24 h, read-out: Minimum Inhibitory Concentration (MIC) (µg/mL) Staphylococcus aureus
  MIC: 0.98 µg/mL (≈ 3.5 µM)
Salmonella typhimurium [15]; Salmonella enterica, TYPHIMURIUM, 24 h, read-out: Minimum Inhibitory Concentration (MIC) (µg/mL) Salmonella typhimurium
  MIC: 1.95 µg/mL (≈ 6.96 µM)

## Clc1ccc(C=NNc2nc3cc(Br)ccc3nc2Cl)cc1 [Compound 8, 6-Bromo-2-chloro-3-[2-(4-chlorobenzylidene)hydrazinyl]quinoxaline]
Bacillus subtilis [1]
  Inhibition Zone Diameter (IZ) (mm) Bacillus subtilis: 9 mm
Aspergillus flavus
  Inhibition Zone Diameter (IZ) (mm) Aspergillus flavus: R (R (IZ = 0 mm))
Salmonella typhimurium [2]
  Inhibition Zone Diameter (IZ) (mm) Salmonella typhimurium: 7 mm
Staphylococcus aureus [3]
  Inhibition Zone Diameter (IZ) (mm) Staphylococcus aureus: 9 mm
[4]; Homo sapiens, WI-38, 48 h
  IC50: 10.6 ± 5.51 µg/mL (≈ 26.7 µM)
other
  melting point: 187 to 189 °C
Streptococcus faecalis [5]
  Inhibition Zone Diameter (IZ) (mm) Streptococcus faecalis: 10 mm
Aspergillus fumigatus
  Inhibition Zone Diameter (IZ) (mm) Aspergillus fumigatus: R (R (IZ = 0 mm))
Candida albicans
  Inhibition Zone Diameter (IZ) (mm) Candida albicans: R (R (IZ = 0 mm))
SF-268 (CNS cancer); Homo sapiens, SF-268, 48 h, read-out: IC50 (μg/mL) SF-268
  IC50: 35.3 ± 12.8 µg/mL (≈ 89.2 µM)
Pseudomonas aeruginosa [7]
  Inhibition Zone Diameter (IZ) (mm) Pseudomonas aeruginosa: 9 mm
[8]; Homo sapiens, MCF7, 48 h, read-out: IC50 (μg/mL) MCF-7
  IC50: 42.2 ± 2.46 µg/mL (≈ 106 µM)
Neisseria gonorrhoeae
  Inhibition Zone Diameter (IZ) (mm) Neisseria gonorrhoeae: 9 mm
[10]; Homo sapiens, NCI-H460, 48 h, read-out: IC50 (μg/mL) NCI-H460
  IC50: 26.6 ± 2.63 µg/mL (≈ 67.2 µM)
Escherichia coli [12]
  Inhibition Zone Diameter (IZ) (mm) Escherichia coli: 11 mm
